Reference: ChEMBL document CHEMBL1145570, “Design and synthesis of 2-pyridones as novel inhibitors of the Bacillus anthracis enoyl-ACP reductase” (Bioorg Med Chem Lett, 2008)
Values after ≈ are worked out from the molar mass of the structure shown.

What follows are compounds tested on Bacillus anthracis (assay: microbe, parasite or virus in culture). Settings: dANR.
Assay type: functional

Point of comparison: `O=c1cc(OCc2ccccc2)ccn1Cc1ccccc1Cl`, MIC 16 µg/mL (≈ 49.1 µM). Against it:
- COc1ccc(Cn2ccc(OCCCn3c4ccccc4c4ccccc43)cc2=O)cc1 — higher, > 80 µg/mL
- Oc1cc(Cl)ccc1Oc1ccc(Cl)cc1Cl [TRICLOSAN] — 5.2-fold lower, 3.1 µg/mL (≈ 10.7 µM)
- C#CCn1ccc(OCc2ccccc2)cc1=O — higher, > 100 µg/mL
- O=c1cc(O)ccn1Cc1ccc(O)cc1 — higher, > 80 µg/mL
- COc1ccc(Oc2ccccc2Cl)c(=O)[nH]1 — higher, > 100 µg/mL
- O=c1cc(OCc2ccc3ccccc3c2)ccn1Cc1ccccc1Cl — higher, > 80 µg/mL
- O=c1cc(OCc2cccc3ccccc23)ccn1Cc1ccccc1Cl — higher, > 80 µg/mL
- CCOC(=O)c1cc(Cn2ccc(OCc3ccccc3)cc2=O)on1 — higher, > 100 µg/mL
- O=C(O)c1ccc(Cn2ccc(OCc3ccccc3)cc2=O)c(Cl)c1 — higher, > 80 µg/mL
- N#Cc1ccc(Cn2ccc(OCc3ccccc3)cc2=O)c(Cl)c1 — higher, > 80 µg/mL
- O=c1cc(OCc2ccccc2)ccn1Cc1ccc([N+](=O)[O-])cc1Cl — higher, > 80 µg/mL
- O=c1cc(OCc2ccccc2)ccn1Cc1ccccc1 — higher, > 80 µg/mL
- O=c1cc(OCCCn2nnc3ccccc32)ccn1Cc1ccccc1Cl — higher, > 80 µg/mL
- O=c1cc(OCCCn2c3ccccc3c3ccccc32)ccn1Cc1ccccc1Cl — higher, > 80 µg/mL
- [O-][n+]1cc(Cl)ccc1Oc1ccc(Cl)cc1Cl — higher, > 100 µg/mL
- N#Cc1ccc(COc2ccn(Cc3ccccc3Cl)c(=O)c2)cc1 — higher, > 80 µg/mL
- O=c1cc(OCCCn2ccnc2)ccn1Cc1ccccc1Cl — higher, > 80 µg/mL
- O=c1[nH]c(OCc2ccccc2)ccc1Cc1ccccc1 — higher, > 100 µg/mL
- COc1ccc(Oc2ccc(Cl)cc2Cl)c(=O)[nH]1 — higher, > 100 µg/mL
- COc1ccc(Cn2ccc(O)cc2=O)cc1 — higher, > 80 µg/mL
- O=c1cc(OCCCn2ccc3ccccc32)ccn1Cc1ccccc1Cl — higher, > 80 µg/mL
- CC(=O)Nc1ccc(Cn2ccc(OCc3ccccc3)cc2=O)c(Cl)c1 — higher, > 80 µg/mL
- Nc1ccc(Cn2ccc(OCc3ccccc3)cc2=O)c(Cl)c1 — higher, > 80 µg/mL
- O=c1cc(O)ccn1Cc1ccccc1 — higher, > 80 µg/mL
- NC(=O)c1ccc(Cn2ccc(OCc3ccccc3)cc2=O)c(Cl)c1 — higher, > 80 µg/mL
- O=c1cc(OCCCn2c3ccccc3c3ccccc32)ccn1Cc1ccccc1 — higher, > 80 µg/mL
- COc1ccc(Oc2ccccc2Cl)c[n+]1[O-] — higher, > 100 µg/mL
